Data as given in US11377425B1, “Small molecule modulators of IL-17” (LEO Pharma A/S, priority 2018, dated 2022).

Each compound was assayed against T1, human IL-17AA (Homo sapiens, UniProt Q16552) (assay: IL-8 release assay in human epithelial keratinocytes adult (HEKa)). Conditions: HEKa cells, 3 ng/mL HEK-human IL-17AA + 10 ng/mL human TNFalpha; read-out: Rel EC50 IL-8 release assay.
T1 construct: host or cells: HEK (human embryonic kidney) cells
T1 sequence (Q16552 24-155): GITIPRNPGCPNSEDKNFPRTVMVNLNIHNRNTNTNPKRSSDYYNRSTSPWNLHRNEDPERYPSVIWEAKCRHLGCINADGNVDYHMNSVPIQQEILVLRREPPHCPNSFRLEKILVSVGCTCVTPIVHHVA
Assay type: cell-based
Experimental: Example 138: IL-8 Release Assay in Human Epithelial Keratinocytes Adult (HEKa)
Keratinocytes were seeded at 3500 cells/well in 384-well ViewPlates (Perkin Elmer) in Epilife medium (Thermo Fisher) containing human keratinocyte growth supplement (HKGS) without hydrocortisone and incubated in a humid incubator at 37° C. 5% CO2, overnight. The following day growth medium was removed and 25 μl fresh Epilife medium added. 75 nL test compound in 100% DMSO was added into each well reserved for test compounds, by the use of acoustic pipetting. The remaining wells received an equal volume of DMSO only, as vehicle control, or terfenadine in DMSO, as a positive control for any cytotoxic compounds. Subsequently, another 25 μL Epilife medium was added to each well. Finally, wells containing test compounds and wells prepared to yield maximum stimulation received […] of 9 ng/mL recombinant, human embryonic kidney cell (HEK)-derived human IL-17AA+30 ng/mL human TNF-alpha, in Epilife medium. Wells prepared to define 100% inhibition of IL-17 effects received 25 μL of 30 ng/mL human TNF-alpha alone, in Epilife medium. Final concentrations were 3 ng/mL HEK-human IL-17AA+10 ng/mL human TNFalpha (maximum stimulation) and 10 ng/mL human TNFalpha alone (100% inhibition, Emax), respectively. Cells were incubated for 68-72 hours in the incubator. IL-8 released from the cells was measured by the use of a commercial homogenous time-resolved fluorescence (HTRF) assay (CisBio). 2 μL cell culture supernatant was transferred to a 384-well Proxiplate. 5 μL HTRF reagent was added and the plates incubated sealed in the dark for 3-22 hours at room temperature. Time-resolved fluorescence was read at 665 vs 620 nm, with excitation at 320 nm, and IL-8 levels calculated as percent of controls. Reduction of the amount of secreted IL-8 indicates decreased IL-17 signaling. Concentration response curves were fitted by the use of a four-parameter logistic equation. Relative IC50 and Emax were reported from curves showing acceptable fit (r^2>0.9). Cytotoxicity was measured in the cell-containing Viewplates following addition of 7 μL PrestoBlue (Thermo Fisher) and incubation for 2.5-3 hours at room temperature, by measuring fluorescence at 615 nm (excitation at 535 nm). Fluorescence was directly proportional to the amount of metabolic activity. Reduction of fluorescence signal indicated cytotoxicity.
Compounds of the present invention were tested in the IL-8 release assay in human epithelial keratinocytes.
Compounds having a Relative EC50 of X; wherein X<100 nM; are indicated with *
Compounds having a Relative EC50 of X; wherein 100 nM<X<1000 nM; are indicated with **
Compounds having a Relative EC50 of X; wherein 1000 nM<X; are indicated with ***
`Cc1n[nH]c(C)c1-c1ccc(NC(=O)C(NC(=O)c2ccnn2[C@@H](C)CO)C2CCCCCCC2)cc1` (single isomer, unassigned) [Example 150] was tested, and the EC50 was > 1000 nM. `Cc1n[nH]c(C)c1-c1ccc(NC(=O)C(NC(=O)c2ccnn2[C@@H](C)CO)C2CCCCCCC2)cc1` (single isomer, unassigned) [Example 151] was tested, and the EC50 was < 100 nM. For `Cc1n[nH]c(C)c1-c1ccc(NC(=O)C(NC(=O)c2ccnn2C(C)C)C2CCCCCCC2)cc1` (single isomer, unassigned) [Example 152, N-[1-cyclooctyl-2-[4-(3,5-dimethyl-1H-pyrazol-4-yl)anilino]-2-oxo-ethyl]-2-(1-methylethyl)pyrazole-3-carboxamide], the EC50 was < 100 nM. `Cc1n[nH]c(C)c1-c1ccc(NC(=O)C(NC(=O)c2ccnn2C(C)C)C2CCCCCCC2)cc1` (single isomer, unassigned) [Example 153, N-[1-cyclooctyl-2-[4-(3,5-dimethyl-1H-pyrazol-4-yl)anilino]-2-oxo-ethyl]-2-(1-methylethyl)pyrazole-3-carboxamide] gave an EC50 of 100 to 1000 nM. Compound `CCn1nccc1C(=O)NC(C(=O)Nc1ccc(-c2c(C)n[nH]c2C)cc1)C1CCCCCCC1` (single isomer, unassigned) [Example 154, N-[1-cyclooctyl-2-[4-(3,5-dimethyl-1H-pyrazol-4-yl)anilino]-2-oxo-ethyl]-2-ethyl-pyrazole-3-carboxamide] has an EC50 of 100 to 1000 nM. For `CCn1nccc1C(=O)NC(C(=O)Nc1ccc(-c2c(C)n[nH]c2C)cc1)C1CCCCCCC1` (single isomer, unassigned) [Example 155, N-[1-cyclooctyl-2-[4-(3,5-dimethyl-1H-pyrazol-4-yl)anilino]-2-oxo-ethyl]-2-ethyl-pyrazole-3-carboxamide], the EC50 was < 100 nM. For `Cc1n[nH]c(C)c1-c1ccc(NC(=O)C(NC(=O)c2ccnn2C)C2CCCCCCC2)cc1` (single isomer, unassigned) [Example 156, N-[1-cyclooctyl-2-[4-(3,5-dimethyl-1H-pyrazol-4-yl)anilino]-2-oxo-ethyl]-2-methyl-pyrazole-3-carboxamide], the EC50 was < 100 nM. With `Cc1n[nH]c(C)c1-c1ccc(NC(=O)C(NC(=O)c2ccnn2C)C2CCCCCCC2)cc1` (single isomer, unassigned) [Example 157, N-[1-cyclooctyl-2-[4-(3,5-dimethyl-1H-pyrazol-4-yl)anilino]-2-oxo-ethyl]-2-methyl-pyrazole-3-carboxamide] the EC50 was > 1000 nM. `Cc1n[nH]c(C)c1-c1ccc(NC(=O)[C@@H](NC(=O)c2ccnn2C)C(C)CC2CC2)cc1` (single isomer, unassigned) [Example 159] gave an EC50 of 100 to 1000 nM. For `Cc1n[nH]c(C)c1-c1ccc(NC(=O)[C@@H](NC(=O)c2ccnn2C)C(C)CC2CC2)cc1` (single isomer, unassigned) [Example 160], the EC50 was 100 to 1000 nM. Compound `Cc1n[nH]c(C)c1-c1ccc(NC(=O)[C@@H](NC(=O)c2ccnn2[C@H](C)CO)C(C)C2CCC2)cc1` (single isomer, unassigned) [Example 164] has an EC50 of 100 to 1000 nM. Compound `Cc1n[nH]c(C)c1-c1ccc(NC(=O)[C@@H](NC(=O)c2ccnn2[C@H](C)CO)C(C)C2CCC2)cc1` (single isomer, unassigned) [Example 165] has an EC50 of 100 to 1000 nM. `Cc1n[nH]c(C)c1-c1ccc(NC(=O)[C@@H](NC(=O)c2ccnn2[C@@H](C)CO)C(C)C2CCC2)cc1` (single isomer, unassigned) [Example 173] was tested, and the EC50 was < 100 nM. `Cc1n[nH]c(C)c1-c1ccc(NC(=O)[C@@H](NC(=O)c2ccnn2[C@@H](C)CO)C(C)C2CCC2)cc1` (single isomer, unassigned) [Example 174] showed an EC50 of 100 to 1000 nM. Compound `Cc1n[nH]c(C)c1-c1ccc(NC(=O)[C@@H](NC(=O)c2ccnn2C(C)CO)C(C)C(C)(C)C)cc1` (single isomer, unassigned) [Example 175] has an EC50 of 100 to 1000 nM. For `Cc1n[nH]c(C)c1-c1ccc(NC(=O)[C@@H](NC(=O)c2ccnn2C(C)CO)C(C)C(C)(C)C)cc1` (single isomer, unassigned) [Example 176], the EC50 was 100 to 1000 nM.
